# Source: PubChem BioAssay AID504944 (Broad Institute, 2011)
# Active and inactive are the calls of the source. How the calls were made is not given here.
# System: not listed separately
# Experiment: HeLa cell cytotoxicity, dose response, cytotoxicity control, 48 h, plate reader, cherry-picks, set 2 (AID 504944)
# Details: HeLa cytotoxicity, plate reader, 48 h; at 13.5 µM (top of the series)
row,SMILES,"activity change, negative = toxicity"
1,COc1ccc(C2=C(C=O)Cc3ccccc3O2)cc1,0.173% (inactive)

# Same assay, conditions: HeLa cytotoxicity, plate reader, 48 h; at 38 µM (top of the series)
row,SMILES,"activity change, negative = toxicity"
1,Cc1cc(NC(=O)c2cc([N+](=O)[O-])cc([N+](=O)[O-])c2C)no1,-10.2% (inactive)
2,O=C(NC1CCCC1)c1cccc(Cl)c1,2.48% (inactive)
3,CSC1=N/C(=C\C=C\c2cccs2)C(=O)S1,-8.63% (inactive)
4,CCOC(=O)c1ccc(N2Cc3ccccc3C2=N)cc1,-10.6% (inactive)
5,O=[N+]([O-])c1ccc(N2CCCCC2)cc1,-9.13% (inactive)
6,COc1ccc(/C=C/C(=O)c2ccoc2)cc1,-17.6% (inactive)
7,CCOc1ccc(-n2cccc2C=O)cc1,-8.05% (inactive)
8,Cc1cc(C)nc(N(C#N)Cc2cccc([N+](=O)[O-])c2)n1,-8.51% (inactive)
9,CC(C)CCNC(=O)c1cccc(Cl)c1,-10.7% (inactive)
10,N#CCn1c(C2CCCCC2)nc2ccccc2c1=O,0.099% (inactive)
11,Cc1ccc(S(=O)c2ccc(C)cc2)cc1,-9.53% (inactive)
12,O=C1C2C(C(=O)N1Cc1ccco1)C1C=CC2C12CC2 (centres undefined),-4.39% (inactive)
13,Cc1ccc(C)c(S(=O)(=O)NC2CCSC2=O)c1 (centres undefined),-5.62% (inactive)
14,O=C(NC1CCCCCCC1)c1cccc(Cl)c1,-22.5% (inactive)
15,CCCCCC1CC(COc2ccccc2)OC1=O (centres undefined),-3.8% (inactive)
16,O=CNC1(c2ccccc2)CCCCC1,-10.5% (inactive)
17,CSc1nnc(-c2ccc([N+](=O)[O-])cc2)o1,-10.7% (inactive)
18,O=[N+]([O-])c1ccc(N2CCCC2)nc1,-3.24% (inactive)
19,Cc1ccc(C(C#N)c2ccc(Cl)nn2)cc1 (centres undefined),-10.6% (inactive)
20,N#CC(c1ccccc1)c1cccc(Cl)n1 (centres undefined),1.47% (inactive)
21,OC(c1cccc(Cl)c1)c1nccc2ccccc12 (centres undefined),-10.8% (inactive)
22,Cn1cccc1C(C#N)c1ccccc1C#N (centres undefined),-10.8% (inactive)

row,SMILES,"activity change, negative = toxicity"
1,N#CC(c1ccc(Cl)cc1)c1ccc(Cl)nn1 (centres undefined),-11% (inactive)
2,Nc1ccc(OCc2ccccc2)cc1[N+](=O)[O-],-5.72% (inactive)
3,O=[N+]([O-])c1ccc(-c2cccnc2)cc1,-9.26% (inactive)
4,O=[N+]([O-])c1ccc(N2CCCCC2)nc1,-0.44% (inactive)
5,CCOC(=O)N1CCN(c2ccc(Cl)cc2)CC1,5.84% (inactive)
6,Cn1cccc1C(=O)OCc1cc(-c2ccco2)on1,0.43% (inactive)
7,N#CN(Cc1ccccc1)Cc1ccccc1,2.47% (inactive)
8,Clc1ccc2scc(CN3CCCCC3)c2c1,-2.59% (inactive)
9,O=C1C=C(c2cc(F)ccc2F)C[C@@H](c2ccc(F)cc2)C1,-9.01% (inactive)
10,CCOC(=O)CCCn1ncn2c(cc3occc32)c1=O,-0.83% (inactive)
11,Clc1ccc2scc(CN3CCCC3)c2c1,-10.3% (inactive)
12,COc1ccc(/C(C#N)=C/c2cccnc2)cc1,-8.3% (inactive)
13,CCOC(=O)c1ccc(-c2ccc(CO)o2)cc1,-14.8% (inactive)
14,CCOC(=O)CC(C#N)c1cn(C)c2ccccc12 (centres undefined),-3.91% (inactive)
15,N#CC1C(C#N)C2CCC1C1C2N1c1ccccc1 (centres undefined),-9.52% (inactive)
16,N#Cc1cc(-c2ccccc2)cnc1Cl,-4.08% (inactive)
17,O=C1C2C3C=CC(C4CC34)C2C(=O)N1Cc1ccco1 (centres undefined),-2.48% (inactive)
18,Cc1cc(C)nc(N(C#N)Cc2ccccc2)n1,2.63% (inactive)
19,COc1ccc(N=C(C)C2=C(O)CSC2=O)cc1,5.59% (inactive)
20,Cc1cc(NC(=O)c2c(F)c(F)c(F)c(F)c2F)no1,-10.1% (inactive)
21,O=CN(c1ccccc1)c1ccc2ccccc2c1,-5.5% (inactive)
22,N#CC(c1ccc(Cl)cc1)c1ncc(C(F)(F)F)cc1Cl (centres undefined),-15% (inactive)

row,SMILES,"activity change, negative = toxicity"
1,CCOC(=O)c1cc2c(s1)-c1c(C)cccc1OC2,-10.8% (inactive)
2,N#CC(c1cccc(Cl)c1)c1ncc(C(F)(F)F)cc1Cl (centres undefined),-12.5% (inactive)
3,CC(C)N=C(NC#N)SCc1ccccc1F,0.214% (inactive)
4,CCCNS(=O)(=O)c1ccc(OC)c(Cl)c1Cl,-2.35% (inactive)
5,Clc1cccc(CNCCCSc2ncccn2)c1,-1.31% (inactive)
6,CC(C)(C)NC(=O)c1cc(Cl)ccc1[N+](=O)[O-],-2.21% (inactive)
7,CCC(C)NS(=O)(=O)c1ccc(OC)c(Cl)c1Cl (centres undefined),-10.1% (inactive)
8,N#CC(Sc1ccccn1)c1ccc(Cl)cc1 (centres undefined),-11% (inactive)
9,O=C(NC1CCCC1)c1cc(Cl)ccc1[N+](=O)[O-],-2.55% (inactive)
10,Cc1cccc(C(C#N)c2ccc(Cl)nn2)c1 (centres undefined),-0.066% (inactive)
11,Cc1cc(NC(=O)Nc2ccccc2[N+](=O)[O-])no1,-12.9% (inactive)
12,COC(=O)c1ccc(OC(=O)c2cccs2)cc1,-10.9% (inactive)
13,O=C1C=C(c2cccc(Cl)c2)C[C@@H](c2ccc(F)cc2)C1,-19.4% (inactive)
14,C#CCSc1ncc(-c2ccccc2)cn1,-4.45% (inactive)
15,CCOc1ccc(CNC2CCCc3ccccc32)cc1 (centres undefined),-11.3% (inactive)
16,Cn1cccc1C(C#N)c1cccc(F)c1C#N (centres undefined),-11.4% (inactive)
17,O=C1N[C@@H](Cc2ccccc2)[C@@H](c2ccco2)O1,-3.87% (inactive)
18,COc1ccccc1C(C#N)c1cccc(Cl)n1 (centres undefined),-0.092% (inactive)
19,O=C(NC1CCS(=O)(=O)C1)c1cccc(Br)c1 (centres undefined),-1.62% (inactive)
20,O=C(NCC1CC1)c1cc([N+](=O)[O-])cc([N+](=O)[O-])c1,5.69% (inactive)
21,COc1ccc(CNCc2cccc(Cl)c2)cc1,3.92% (inactive)
22,Cc1ccc2scc(CN3CCCC3)c2c1,-3.48% (inactive)

row,SMILES,"activity change, negative = toxicity"
1,CCOC1=CC(=O)OC(c2ccccc2)C1 (centres undefined),-12.2% (inactive)
2,COC(=O)c1cc(-c2ccc(Br)cc2)on1,-9.19% (inactive)
3,N#CC(c1ccc(Cl)nn1)c1c(F)cccc1Cl (centres undefined),-4.99% (inactive)
4,COC(=O)c1ccc(OC(=O)c2ccco2)cc1,-11.8% (inactive)
5,N#CC(c1ccc(Cl)nn1)c1ccc(Cl)cc1Cl (centres undefined),-7.39% (inactive)
6,CCOC(=O)c1ccc(-c2ccc(C=O)o2)cc1,0.584% (inactive)
7,N#CC(c1ccc(Cl)nn1)c1ccccc1Cl (centres undefined),-3.51% (inactive)
8,COc1ccc(C(C#N)c2ccc(Cl)nn2)cc1 (centres undefined),8.42% (inactive)
9,Cc1ccc(S(=O)(=O)NCCC(C)C)cc1[N+](=O)[O-],-2.87% (inactive)
10,Cc1cccc(NC(=O)Nc2cc(C)on2)c1,-3.2% (inactive)
11,COC(=O)c1ccc(NC(=S)N2CCCC2)cc1,0.525% (inactive)
12,Cc1cc(S(=O)(=O)NCC2CC2)c(Cl)cc1Cl,-4.01% (inactive)
13,C=CCOC(=O)c1ccc(-n2cnc(C)n2)nc1,-2.17% (inactive)
14,N#CC(c1ccc(Cl)cc1)c1cccc(Cl)n1 (centres undefined),-6.14% (inactive)
15,COc1ccc(N2CCN(C(=O)c3ccc(Br)o3)CC2)cc1,-5.84% (inactive)
16,CCNC(=O)COc1ccc2ccccc2c1,-6.43% (inactive)
17,O=C(c1cccc([N+](=O)[O-])c1)N1CC2C3C=CC(C3)C2C1 (centres undefined),-2.29% (inactive)
18,COC(=O)c1cc(-c2ccc(OC)cc2)on1,4.16% (inactive)
19,O=S1(=O)CCOC[C@H](c2ccccc2)N1Cc1cccc(Cl)c1,-9.16% (inactive)

# System: HeLa cytotoxicity, plate reader, 48 h
# Experiment: as above
# Details: not given
row,SMILES,AC50
1,CCOC(=O)/C=C(\C)Sc1cc(=O)oc2ccccc12,23.9 µM
2,O=CC1=C(c2ccccc2)Oc2ccccc2O1,20.6 µM
3,Cc1ccc2nc(-c3ccc4c(c3)OCCO4)cn2c1,22.3 µM
4,O=C(Nc1ncc([N+](=O)[O-])s1)c1cccc([N+](=O)[O-])c1,14.3 µM
5,COC(=O)c1ccc(/C=C(\C#N)c2ccccn2)cc1,29 µM
6,Cc1cc(NC(=O)c2cc([N+](=O)[O-])ccc2Cl)no1,29.1 µM
7,CO/N=C/c1cn(-c2ccc(Cl)cc2)nn1,22.3 µM
8,N#C/C(=C/c1ccco1)c1nc2ccccc2s1,24.4 µM
